Test results taken from the OligoGym collection.
Oligonucleotides are given in HELM: sugar(base)linkage, 5' to 3'; d 2'-deoxyribose, r ribose, m 2'-O-methylribose, p phosphate. ss, as = sense and antisense strand

These substances were tested against Mmp7 (rat) (assay: reporter assay of Huesken 2005). Settings: siRNA.
Further: test concentration or dose not given here.

Q: With “RNA1{r(U)p.r(C)p.r(U)p.r(A)p.r(A)p.r(A)p.r(A)p.r(C)p.r(A)p.r(A)p.r(A)p.r(G)p.r(A)p.r(A)p.r(G)p.r(G)p.r(C)p.r(C)p.r(A)p.d(T)p.d(T)}|RNA2{r(U)p.r(G)p.r(G)p.r(C)p.r(C)p.r(U)p.r(U)p.r(C)p.r(U)p.r(U)p.r(U)p.r(G)p.r(U)p.r(U)p.r(U)p.r(U)p.r(A)p.r(G)p.r(A)p.d(G)p.d(T)}$$$RNA1{StrandType:ss}|RNA2{StrandType:as}$” as the substance, how does the normalised inhibition (eCFP-eYFP dual reporter) read?
A: 95.7%

Q: For “RNA1{r(U)p.r(C)p.r(U)p.r(G)p.r(U)p.r(G)p.r(A)p.r(U)p.r(G)p.r(U)p.r(A)p.r(C)p.r(C)p.r(C)p.r(U)p.r(A)p.r(C)p.r(C)p.r(U)p.d(T)p.d(T)}|RNA2{r(A)p.r(G)p.r(G)p.r(U)p.r(A)p.r(G)p.r(G)p.r(G)p.r(U)p.r(A)p.r(C)p.r(A)p.r(U)p.r(C)p.r(A)p.r(C)p.r(A)p.r(G)p.r(A)p.d(A)p.d(C)}$$$RNA1{StrandType:ss}|RNA2{StrandType:as}$”, which normalised inhibition (eCFP-eYFP dual reporter) is on record?
A: 55.2%

Q: For “RNA1{r(U)p.r(C)p.r(U)p.r(G)p.r(U)p.r(U)p.r(C)p.r(C)p.r(C)p.r(A)p.r(G)p.r(U)p.r(U)p.r(C)p.r(U)p.r(G)p.r(U)p.r(G)p.r(A)p.d(T)p.d(T)}|RNA2{r(U)p.r(C)p.r(A)p.r(C)p.r(A)p.r(G)p.r(A)p.r(A)p.r(C)p.r(U)p.r(G)p.r(G)p.r(G)p.r(A)p.r(A)p.r(C)p.r(A)p.r(G)p.r(A)p.d(A)p.d(G)}$$$RNA1{StrandType:ss}|RNA2{StrandType:as}$”, which normalised inhibition (eCFP-eYFP dual reporter) is on record?
A: 99.6%

Q: How did the normalised inhibition (eCFP-eYFP dual reporter) turn out when “RNA1{r(U)p.r(G)p.r(A)p.r(A)p.r(C)p.r(U)p.r(U)p.r(C)p.r(C)p.r(U)p.r(G)p.r(U)p.r(U)p.r(U)p.r(G)p.r(U)p.r(U)p.r(G)p.r(C)p.d(T)p.d(T)}|RNA2{r(G)p.r(C)p.r(A)p.r(A)p.r(C)p.r(A)p.r(A)p.r(A)p.r(C)p.r(A)p.r(G)p.r(G)p.r(A)p.r(A)p.r(G)p.r(U)p.r(U)p.r(C)p.r(A)p.d(C)p.d(G)}$$$RNA1{StrandType:ss}|RNA2{StrandType:as}$” was run?
A: 33.7%

Q: Which normalised inhibition (eCFP-eYFP dual reporter) does the source give for “RNA1{r(U)p.r(G)p.r(A)p.r(G)p.r(G)p.r(G)p.r(A)p.r(A)p.r(A)p.r(U)p.r(G)p.r(C)p.r(A)p.r(G)p.r(A)p.r(A)p.r(G)p.r(U)p.r(U)p.d(T)p.d(T)}|RNA2{r(A)p.r(A)p.r(C)p.r(U)p.r(U)p.r(C)p.r(U)p.r(G)p.r(C)p.r(A)p.r(U)p.r(U)p.r(U)p.r(C)p.r(C)p.r(C)p.r(U)p.r(C)p.r(A)p.d(G)p.d(T)}$$$RNA1{StrandType:ss}|RNA2{StrandType:as}$” here?
A: 104%

Q: “RNA1{r(U)p.r(G)p.r(A)p.r(G)p.r(U)p.r(A)p.r(C)p.r(U)p.r(G)p.r(G)p.r(A)p.r(C)p.r(G)p.r(G)p.r(A)p.r(U)p.r(G)p.r(G)p.r(U)p.d(T)p.d(T)}|RNA2{r(A)p.r(C)p.r(C)p.r(A)p.r(U)p.r(C)p.r(C)p.r(G)p.r(U)p.r(C)p.r(C)p.r(A)p.r(G)p.r(U)p.r(A)p.r(C)p.r(U)p.r(C)p.r(A)p.d(T)p.d(C)}$$$RNA1{StrandType:ss}|RNA2{StrandType:as}$” was tested. Which normalised inhibition (eCFP-eYFP dual reporter) did it give?
A: 63.1%

Q: For “RNA1{r(U)p.r(G)p.r(C)p.r(A)p.r(G)p.r(A)p.r(A)p.r(G)p.r(C)p.r(C)p.r(C)p.r(A)p.r(G)p.r(G)p.r(U)p.r(G)p.r(U)p.r(G)p.r(G)p.d(T)p.d(T)}|RNA2{r(C)p.r(C)p.r(A)p.r(C)p.r(A)p.r(C)p.r(C)p.r(U)p.r(G)p.r(G)p.r(G)p.r(C)p.r(U)p.r(U)p.r(C)p.r(U)p.r(G)p.r(C)p.r(A)p.d(T)p.d(T)}$$$RNA1{StrandType:ss}|RNA2{StrandType:as}$”, which normalised inhibition (eCFP-eYFP dual reporter) is on record?
A: 61.3%

Q: For “RNA1{r(U)p.r(G)p.r(C)p.r(A)p.r(G)p.r(A)p.r(A)p.r(U)p.r(U)p.r(C)p.r(U)p.r(C)p.r(A)p.r(C)p.r(U)p.r(A)p.r(A)p.r(U)p.r(G)p.d(T)p.d(T)}|RNA2{r(C)p.r(A)p.r(U)p.r(U)p.r(A)p.r(G)p.r(U)p.r(G)p.r(A)p.r(G)p.r(A)p.r(A)p.r(U)p.r(U)p.r(C)p.r(U)p.r(G)p.r(C)p.r(A)p.d(A)p.d(C)}$$$RNA1{StrandType:ss}|RNA2{StrandType:as}$”, which normalised inhibition (eCFP-eYFP dual reporter) is on record?
A: 72.9%

Q: For “RNA1{r(U)p.r(G)p.r(C)p.r(C)p.r(U)p.r(U)p.r(U)p.r(G)p.r(C)p.r(A)p.r(C)p.r(C)p.r(G)p.r(G)p.r(G)p.r(G)p.r(C)p.r(C)p.r(A)p.d(T)p.d(T)}|RNA2{r(U)p.r(G)p.r(G)p.r(C)p.r(C)p.r(C)p.r(C)p.r(G)p.r(G)p.r(U)p.r(G)p.r(C)p.r(A)p.r(A)p.r(A)p.r(G)p.r(G)p.r(C)p.r(A)p.d(T)p.d(G)}$$$RNA1{StrandType:ss}|RNA2{StrandType:as}$”, which normalised inhibition (eCFP-eYFP dual reporter) is on record?
A: 59.1%

Q: “RNA1{r(U)p.r(G)p.r(G)p.r(A)p.r(C)p.r(G)p.r(G)p.r(A)p.r(U)p.r(G)p.r(G)p.r(U)p.r(G)p.r(A)p.r(G)p.r(G)p.r(A)p.r(C)p.r(U)p.d(T)p.d(T)}|RNA2{r(A)p.r(G)p.r(U)p.r(C)p.r(C)p.r(U)p.r(C)p.r(A)p.r(C)p.r(C)p.r(A)p.r(U)p.r(C)p.r(C)p.r(G)p.r(U)p.r(C)p.r(C)p.r(A)p.d(G)p.d(T)}$$$RNA1{StrandType:ss}|RNA2{StrandType:as}$” was tested. Which normalised inhibition (eCFP-eYFP dual reporter) did it give?
A: 52.5%

Q: “RNA1{r(U)p.r(G)p.r(G)p.r(A)p.r(G)p.r(U)p.r(G)p.r(C)p.r(C)p.r(A)p.r(G)p.r(A)p.r(U)p.r(G)p.r(U)p.r(U)p.r(G)p.r(C)p.r(A)p.d(T)p.d(T)}|RNA2{r(U)p.r(G)p.r(C)p.r(A)p.r(A)p.r(C)p.r(A)p.r(U)p.r(C)p.r(U)p.r(G)p.r(G)p.r(C)p.r(A)p.r(C)p.r(U)p.r(C)p.r(C)p.r(A)p.d(C)p.d(A)}$$$RNA1{StrandType:ss}|RNA2{StrandType:as}$” was tested. Which normalised inhibition (eCFP-eYFP dual reporter) did it give?
A: 91.3%

Q: How did the normalised inhibition (eCFP-eYFP dual reporter) turn out when “RNA1{r(U)p.r(G)p.r(G)p.r(C)p.r(C)p.r(C)p.r(U)p.r(G)p.r(C)p.r(C)p.r(A)p.r(C)p.r(U)p.r(G)p.r(U)p.r(C)p.r(C)p.r(C)p.r(A)p.d(T)p.d(T)}|RNA2{r(U)p.r(G)p.r(G)p.r(G)p.r(A)p.r(C)p.r(A)p.r(G)p.r(U)p.r(G)p.r(G)p.r(C)p.r(A)p.r(G)p.r(G)p.r(G)p.r(C)p.r(C)p.r(A)p.d(G)p.d(G)}$$$RNA1{StrandType:ss}|RNA2{StrandType:as}$” was run?
A: 93.6%

Q: Which normalised inhibition (eCFP-eYFP dual reporter) does the source give for “RNA1{r(U)p.r(G)p.r(G)p.r(G)p.r(A)p.r(A)p.r(C)p.r(A)p.r(G)p.r(G)p.r(C)p.r(G)p.r(C)p.r(A)p.r(G)p.r(A)p.r(A)p.r(U)p.r(U)p.d(T)p.d(T)}|RNA2{r(A)p.r(A)p.r(U)p.r(U)p.r(C)p.r(U)p.r(G)p.r(C)p.r(G)p.r(C)p.r(C)p.r(U)p.r(G)p.r(U)p.r(U)p.r(C)p.r(C)p.r(C)p.r(A)p.d(C)p.d(T)}$$$RNA1{StrandType:ss}|RNA2{StrandType:as}$” here?
A: 46.8%

Q: “RNA1{r(U)p.r(G)p.r(G)p.r(U)p.r(G)p.r(A)p.r(G)p.r(G)p.r(A)p.r(C)p.r(U)p.r(C)p.r(A)p.r(G)p.r(G)p.r(C)p.r(G)p.r(U)p.r(G)p.d(T)p.d(T)}|RNA2{r(C)p.r(A)p.r(C)p.r(G)p.r(C)p.r(C)p.r(U)p.r(G)p.r(A)p.r(G)p.r(U)p.r(C)p.r(C)p.r(U)p.r(C)p.r(A)p.r(C)p.r(C)p.r(A)p.d(T)p.d(C)}$$$RNA1{StrandType:ss}|RNA2{StrandType:as}$” was tested. Which normalised inhibition (eCFP-eYFP dual reporter) did it give?
A: 69.8%
